The text below walks through data of US11969002B2, “Savoury and mouthfulness taste enhancers” (LUCTA, S.A., priority 2018, dated 2024).

The test system of this experiment is kokumi and/or umami taste. Description: Sensory test: taste threshold in model broth (duo-trio test, sensory panel). Particulars: for taste quality with the savoury taste threshold in model broth: descriptor in brackets after the threshold value; for minimal effective concentration: duo-trio-test ISO 10399:2017, model broth as constant blank, successive 1:2 dilutions in model broth, panel value averaged over three sessions, read-out: savoury taste threshold in model broth. The experiment is classed as in vivo. The text has this:
This sensory test allowed evaluating the capacity of the compounds of formula (IA), (IB), (IC), (ID), (IE), (IF), (IG), (IH) and (IJ) as defined above to enhance taste; particularly kokumi and/or umami taste. This test allowed measuring the taste threshold of the mixtures comprising an amount from 86% to 99% by weight measured by quantitative proton-NMR of a compound of formula (IA), (IB), (IC), (ID), (IE), (IF), (IG), (IH) and (IJ) in model broth. The “taste threshold” refers to the minimum taste stimulus needed to detect the presence of a compound of formula (IA), (IB), (IC), (ID), (IE), (IF), (IG), (IH) and (IJ) of the present invention. The lower the taste threshold, the greater the capacity as enhancer; particularly greater the capacity as kokumi and/or umami enhancer.
Samples • Diluted samples of the mixtures comprising a compound of formula (IA), (IB), (IC), (ID), (IE), (IF), (IG) and (IJ) in an amount from 86% to 99% by weight measured by quantitative proton-NMR with model broth. • Model broth as constant […]. • Diluted samples of comparative samples with model broth: • Comparative compound 1: 5-(aminomethyl)-2-methylpyrimidin-4-amine (Berkshire, United Kingdom) • Comparative compound 2: (4-amino-2-methylpyrimidin-5-yl)methanol (Carbosynth-Berkshire, United Kingdom) • Comparative compound 3: Thiamine (Sigma-Aldrich, Steinheim, Germany)
Model broth: The model broth comprises the following composition: 1.9 g/L of sodium Sodium chloride (Sigma Aldrich, Steinheim, Germany); 1.9 g/L of mono sodium L-glutatmate (Merck, Darmastadt, Germany); 6.4 g/L of Maltodextrin (Sigma Aldrich, Steinheim, Germany); and 2.1 g/L yeast extract (Gistex GSX II, DSM Food specialities Savoury Ingredients; Delft, Netherlands). The model broth is prepared by mixing the ingrediets under agitation in an ultrasonic bath.
Diluted samples of the mixtures comprising a compound of formula (IA), (IB), (IC), (ID), (IE), (IF), (IG), (IH) and (IJ) in an amount from 86% to 99% by weight measured by quantitative proton-NMR of the present invention: The pH value of each individual mixture comprising an amount from 86% to 99% by weight measured by quantitative proton-NMR of a compound of formula (IA), (IB), (IC), (ID), (IE), (IF), (IG), (IH) and (IJ) was adjusted to 5.4 by the addition of the appropriate amount of formic acid. Each individual pH adjusted mixture thus obtained was diluted 1:2 successively with the model broth to obtain diluted solutions of the mixture comprising a compound of formula formula (IA), (IB), (IC), (ID), (IE), (IF), (IG), (IH) and (IJ) in a concentration from 10 μmol/L to 1000 μmol/L measured by quantitative proton-NMR.
Diluted samples of the comparative compounds 1-3. A mixture of each individual comparative compound 1-3 with model broth was prepared by successively dilution 1:2 of each individual comparative compound with model broth to obtain the diluted comparative solutions having a concentration from 10 μmol/L to 1000 μmol/L measured by quantitative proton-NMR of the comparative compound.
The diluted solutions of the present invention and the comparative solutions falling outside the scope of protection of the present invention obtained above were presented to the panelists with increasing concentrations of the tested solutions by means of the duo-trio-test according to ISO 10399:2017; using the model broth as constant blank. The panelists were asked to mark the differing samples.
The taste threshold is calculated by means of the geometric mean. The geometric mean of the last and the second last concentration was calculated and taken as the individual threshold. The threshold value of the sensory panel was approximated by averaging the threshold values of the individuals in three independent sessions. Values between individuals and separate sessions differed not more than two dilution steps (cf. Lawless, Harry T. “Sensory Evaluation of Food”. Springer, 2nd edition, 2010, pp. 125-145)

Bounds are passed on as bounds.

Regarding `Cc1ncc(CSC[C@H](N)C(=O)O)c(N)n1` (single isomer, unassigned) [Mixture comprising (IA), S-((4-amino-2-methylpyrimidin-5-yl)methyl)-L-cysteine], the “taste quality with the savoury taste threshold in model broth” value (shortened to “taste quality”) was “kokumi” and the minimal effective concentration turned out to be 120 µM.

For `CC(=O)C(CCO)SCc1cnc(C)nc1N` (single isomer, unassigned) [Mixture comprising (IB), 3-(((4-amino-2-methylpyrimidin-5-yl)methyl)thio)-5-hydroxy-pentan-2-one], the “taste quality” value was “kokumi” and the minimal effective concentration is 40 µM.

With `Cc1ncc(CSCC(N)C(=O)NCC(=O)O)c(N)n1` (single isomer, unassigned) [Mixture comprising (IC), S-((4-amino-2-methylpyrimidin-5-yl)methyl)cysteinylglycine], the “taste quality” value is listed as “kokumi” and the minimal effective concentration amounted to 880 µM.

For the compound `Cc1ncc(CSCC2NC(=O)CNC2=O)c(N)n1` (single isomer, unassigned) [Mixture comprising (ID), 3-((((4-amino-2-methylpyrimidin-5-yl)methyl)thio)methyl)piperazine-2,5-dione], the “taste quality” value was “kokumi” and the minimal effective concentration was determined as 255 µM.

`CCC(SCc1cnc(C)nc1N)C(C)=O` (single isomer, unassigned) [Mixture comprising (IE), 3-(((4-amino-2-methylpyrimidin-5-yl)methyl)thio)pentan-2-one]: the “taste quality” value is listed as “kokumi” and the minimal effective concentration turned out to be 35 µM.

On to `Cc1ncc(CSc2ccoc2C)c(N)n1` (single isomer, unassigned) [Mixture comprising (IF), 2-methyl-5-(((2-methylfuran-3-yl)thio)methyl)pyrimidin-4-amine], for which the “taste quality” value was “kokumi” and the minimal effective concentration is 50 µM.

For `Cc1ncc(CSCc2ccco2)c(N)n1` (single isomer, unassigned) [Mixture comprising (IG), 5-(((furan-2-ylmethyl)thio)methyl)-2-methylpyrimidin-4-amine], the “taste quality” value is “kokumi” and the minimal effective concentration was 120 µM.

With `CSCc1cnc(C)nc1N` (single isomer, unassigned) [Mixture comprising (IH), 2-methyl-5-((methylthio)methyl)pyrimidin-4-amine], the “taste quality” value is reported as “kokumi” and the minimal effective concentration amounted to 70 µM.

`Cc1ncc(CS)c(N)n1` (single isomer, unassigned) [Mixture comprising (IJ), (4-amino-2-methylpyrimidin-5-yl)methanethiol]: the “taste quality” value is “kokumi” and the minimal effective concentration came out at 80 µM.

Consider `Cc1ncc(CN)c(N)n1` [Comparative compound 1, 5-(aminomethyl)-2-methylpyrimidin-4-amine, reference compound], for which the minimal effective concentration was > 1100 µM.

On to `Cc1ncc(CO)c(N)n1` [Comparative compound 2, (4-amino-2-methylpyrimidin-5-yl)methanol, reference compound], for which the “taste quality” value was “kokumi” and the minimal effective concentration is 700 µM.

As to `Cc1ncc(C[n+]2csc(CCO)c2C)c(N)n1` [Comparative compound 3, Thiamine, reference compound], the minimal effective concentration worked out at 1200 µM.
